Measured values taken from patent US20250092065A1, “2-(INDAZOL-5-YL)-6-(PIPERIDIN-4-YL)-1,7-NAPHTHYRIDINE DERIVATIVES AND RELATED COMPOUNDS AS MODULATORS FOR SPLICING NUCLEIC ACIDS AND FOR THE TREATMENT OF PROLIFERATIVE DISEASES” (REMIX THERAPEUTICS INC., priority 2022, published 2025).
Counter-ions that a name gives are not always drawn.

Key:
Target C = experiment: RT-qPCR canonical junction panel assay, Target C mRNA; assay type: cell-based; conditions: Table 4, read-out: Target C IC50 (decrease in CJ mRNA levels)
Summary of the method: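 IC50 is the concentration giving 50% CJ decrease, from a 4-parameter logistic fit of percent response; response derived from ΔΔCt against housekeeper and DMSO over a fixed ΔCt window, with canonical exon-junction qPCR in compound-treated K562 or A673 cells.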

HTT = experiment: HiBiT protein abundance assay, HTT (K562 HiBiT knock-in); assay type: cell-based, human; conditions: HiBiT knock-in K562 cells, 24 hours, top dose 10 μM
Summary of the method: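 Luminescence readout: Nano-Glo HiBiT lytic detection after 24 h compound exposure of K562 HiBiT knock-in cells, 10000 cells/well. Dosing 10-pt, 3-fold, top 10 μM final. % response vs untreated parental K562 and DMSO controls; 4PL fit, IC50 = concentration giving 50% protein abundance.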

| IC50 (Target C) [µM] | IC50 (HTT) [µM] | SMILES |
| --- | --- | --- |
| 0.1 to 1 | < 0.1 | Cc1cn2cc(-c3ccc4cc(N5CCNCC5)cc(F)c4n3)cc(F)c2n1 [Compound 517, 8-fluoro-2-{8-fluoro-2-methylimidazo[1,2-a]pyridin-6-yl}-6-(piperazin-1-yl)quinoline] |
| > 10 | 1 to 10 | Cn1cc2cc(-c3nc(C4CC4)c4cc(N5CCNCC5)ccc4n3)c(O)c(F)c2n1 [Compound 518, 5-[4-cyclopropyl-6-(piperazin-1-yl)quinazolin-2-yl]-7-fluoro-2-methylindazol-6-ol; trifluoroacetic acid] |
| > 10 | 1 to 10 | Cc1c(O)c(-c2nc(-c3cncs3)c3cc(N4CCNCC4)ccc3n2)cc2cn(C)nc12 [Compound 519, 2,7-dimethyl-5-[6-(piperazin-1-yl)-4-(1,3-thiazol-5-yl)quinazolin-2-yl]indazol-6-ol] |
| 1 to 10 | 0.1 to 1 | Cc1c(O)c(-c2ncc3cc(N4CCNCC4)ccc3n2)cc2cn(C)nc12 [Compound 520, 2,7-dimethyl-5-[6-(piperazin-1-yl)quinazolin-2-yl]indazol-6-ol] |
| > 10 | 1 to 10 | Cc1c(O)c(-c2nc(-c3nnc[nH]3)c3cc(N4CCNCC4)ccc3n2)cc2cn(C)nc12 [Compound 522, 2,7-dimethyl-5-[6-(piperazin-1-yl)-4-(4H-1,2,4-triazol-3-yl)quinazolin-2-yl]indazol-6-ol; bis(trifluoroacetic acid)] |
| 1 to 10 | 0.1 to 1 | Cc1c(O)c(-c2nc(C(N)=O)c3cc(N4CCNCC4)ccc3n2)cc2cn(C)nc12 [Compound 523, 2-(6-hydroxy-2,7-dimethylindazol-5-yl)-6-(piperazin-1-yl) quinazoline-4-carboxamide] |
| > 10 | > 10 | Cc1c(O)c(-c2nc(C(=O)O)c3cc(N4CCNCC4)ccc3n2)cc2cn(C)nc12 [Compound 524, 2-(6-hydroxy-2,7-dimethylindazol-5-yl)-6-(piperazin-1-yl) quinazoline-4-carboxylic acid] |
| 1 to 10 | 0.1 to 1 | Cc1c(O)c(-c2ncc3cc(N4C[C@@H](C)N[C@@H](C)C4)ccc3n2)cc2cn(C)nc12 [Compound 525, 5-{6-[(3R,5S)-3,5-dimethylpiperazin-1-yl]quinazolin-2-yl}-2,7-dimethylindazol-6-ol] |
| 1 to 10 | 0.1 to 1 | Cc1c(O)c(-c2ncc3nc(N4C[C@@H](C)N[C@@H](C)C4)ccc3n2)cc2cn(C)nc12 [Compound 526, 5-{6-[(3R,5S)-3,5-dimethylpiperazin-1-yl]pyrido[3,2-d]pyrimidin-2-yl}-2,7-dimethylindazol-6-ol] |
| 0.1 to 1 | < 0.1 | CNC(=O)c1nc(-c2cc3cn(C)nc3c(F)c2O)nc2ccc(N3C[C@@H](C)N[C@@H](C)C3)cc12 [Compound 527, 6-[(3R,5S)-3,5-dimethylpiperazin-1-yl]-2-(7-fluoro-6-hydroxy-2-methylindazol-5-yl)-N-methylquinazoline-4-carboxamide] |
| 1 to 10 | 0.1 to 1 | CNC(=O)c1nc(-c2cc3cn(C)nc3c(F)c2O)nc2ccc(N3CCC(N(C)C)CC3)cc12 [Compound 528, 6-[4-(dimethylamino)piperidin-1-yl]-2-(7-fluoro-6-hydroxy-2-methylindazol-5-yl)-N-methylquinazoline-4-carboxamide] |
| 1 to 10 | < 0.1 | CNC(=O)c1nc(-c2cc3cn(C)nc3c(F)c2O)nc2ccc(N3CCN[C@@H](C)C3)cc12 [Compound 529, 2-(7-fluoro-6-hydroxy-2-methylindazol-5-yl)-N-methyl-6-[(3S)-3-methylpiperazin-1-yl]quinazoline-4-carboxamide] |
| > 10 | 0.1 to 1 | CNC(=O)c1nc(-c2cc3cn(C)nc3cc2O)nc2ccc(N3CCN[C@@H](C)C3)cc12 [Compound 530, 2-(6-hydroxy-2-methylindazol-5-yl)-N-methyl-6-[(3S)-3-methylpiperazin-1-yl]quinazoline-4-carboxamide] |
| > 10 | 0.1 to 1 | CNC(=O)c1nc(-c2cc3cn(C)nc3cc2O)nc2ccc(N3C[C@@H](C)N[C@@H](C)C3)cc12 [Compound 531, 6-[(3R,5S)-3,5-dimethylpiperazin-1-yl]-2-(6-hydroxy-2-methylindazol-5-yl)-N-methylquinazoline-4-carboxamide] |
| > 10 | 0.1 to 1 | CNC(=O)c1nc(-c2cc3cn(C)nc3c(C)c2O)nc2ccc(N3CCNC4(CC4)C3)cc12 [Compound 532, 6-{4,7-diazaspiro[2.5]octan-7-yl}-2-(6-hydroxy-2,7-dimethylindazol-5-yl)-N-methylquinazoline-4-carboxamide] |
| > 10 | 1 to 10 | CNC(=O)c1nc(-c2cc3cn(C)nc3c(C)c2O)nc2ccc(N3CCNCC3)nc12 [Compound 533, 2-(6-hydroxy-2,7-dimethylindazol-5-yl)-N-methyl-6-(piperazin-1-yl)pyrido[3,2-d]pyrimidine-4-carboxamide] |

| IC50 (Target C) [µM] | IC50 (HTT) [µM] | SMILES |
| --- | --- | --- |
| > 10 | 1 to 10 | CNC(=O)c1nc(-c2cc3cn(C)nc3c(C)c2O)nc2ccc(N3C[C@@H](C)N[C@@H](C)C3)nc12 [Compound 534, 6-[(3R,5S)-3,5-dimethylpiperazin-1-yl]-2-(6-hydroxy-2,7-dimethylindazol-5-yl)-N-methylpyrido[3,2-d]pyrimidine-4-carboxamide] |
| 1 to 10 | < 0.1 | CCNC(=O)c1nc(-c2cc3cn(C)nc3c(C)c2O)nc2ccc(N3C[C@@H](C)N[C@@H](C)C3)cc12 [Compound 535, 6-[(3R,5S)-3,5-dimethylpiperazin-1-yl]-N-ethyl-2-(6-hydroxy-2,7-dimethylindazol-5-yl)quinazoline-4-carboxamide] |
| < 0.1 | < 0.1 | CNC(=O)c1nc(-c2cc3cn(C)nc3c(C)c2O)nc2ccc(N3CC[C@@H](NC)C3)cc12 [Compound 536, 2-(6-hydroxy-2,7-dimethylindazol-5-yl)-N-methyl-6-[(3R)-3-(methylamino)pyrrolidin-1-yl]quinazoline-4-carboxamide] |
| 0.1 to 1 | < 0.1 | CNC(=O)c1nc(-c2cc3cn(C)nc3c(C)c2O)nc2ccc(N3CC[C@H](NC)C3)cc12 [Compound 537, 2-(6-hydroxy-2,7-dimethylindazol-5-yl)-N-methyl-6-[(3S)-3-(methylamino)pyrrolidin-1-yl]quinazoline-4-carboxamide] |
| 1 to 10 | 1 to 10 | Cc1c(O)c(-c2nc(-c3c[nH]nn3)c3cc(N4CCNCC4)ccc3n2)cc2cn(C)nc12 [Compound 538, 2,7-dimethyl-5-[6-(piperazin-1-yl)-4-(1H-1,2,3-triazol-4-yl)quinazolin-2-yl]indazol-6-ol hydrochloride] |
| 0.1 to 1 | < 0.1 | Cc1c(O)c(-c2nc(C(=O)NC(C)C)c3cc(N4C[C@@H](C)N[C@@H](C)C4)ccc3n2)cc2cn(C)nc12 [Compound 539, 6-[(3R,5S)-3,5-dimethylpiperazin-1-yl]-2-(6-hydroxy-2,7-dimethylindazol-5-yl)-N-isopropylquinazoline-4-carboxamide] |
| > 10 | 0.1 to 1 | Cc1c(O)c(-c2nc(C(=O)NC3CCC3)c3cc(N4C[C@@H](C)N[C@@H](C)C4)ccc3n2)cc2cn(C)nc12 [Compound 540] |
| 1 to 10 | > 10 | Cc1c(O)c(-c2nc(-c3nn[nH]n3)c3cc(N4CCNCC4)ccc3n2)cc2cn(C)nc12 [Compound 541, 2,7-dimethyl-5-[6-(piperazin-1-yl)-4-(2H-1,2,3,4-tetrazol-5-yl)quinazolin-2-yl]indazol-6-ol] |
| > 10 | 1 to 10 | C[C@@H]1CN(c2ccc3nc(-c4cc5cn(C)nc5c(F)c4O)nc(C4CC4)c3c2)C[C@H](C)N1 [Compound 542, 5-{4-cyclopropyl-6-[(3R,5S)-3,5-dimethylpiperazin-1-yl]quinazolin-2-yl}-7-fluoro-2-methylindazol-6-ol] |
| 0.1 to 1 | < 0.1 | CN[C@@H]1CCN(c2ccc3nc(-c4cc5cn(C)nc5c(F)c4O)nc(C4CC4)c3c2)C1 [Compound 543, 5-{4-cyclopropyl-6-[(3R)-3-(methylamino)pyrrolidin-1-yl]quinazolin-2-yl}-7-fluoro-2-methylindazol-6-ol] |
| 1 to 10 | 0.1 to 1 | Cc1cn2cc(-c3ccc4cc(N5C[C@@H](C)N[C@@H](C)C5)cc(F)c4n3)cc(F)c2n1 [Compound 544, 6-[(3R,5S)-3,5-dimethylpiperazin-1-yl]-8-fluoro-2-{8-fluoro-2-methylimidazo[1,2-a]pyridin-6-yl}quinoline] |
| > 10 | < 0.1 | CNC(=O)c1nc(-c2cc3cn(C)nc3c(C)c2O)nc2ccc(N3C[C@H](C)N[C@@H](C)C3)cc12 [Compound 652, 6-[(3S,5S)-3,5-dimethylpiperazin-1-yl]-2-(6-hydroxy-2,7-dimethylindazol-5-yl)-N-methylquinazoline-4-carboxamide] |
| 1 to 10 | 0.1 to 1 | Cc1c(O)c(-c2ncc3cc(N4C[C@H](C)N[C@@H](C)C4)ccc3n2)cc2cn(C)nc12 [Compound 660, 5-{6-[(3S,5S)-3,5-dimethylpiperazin-1-yl]quinazolin-2-yl}-2,7-dimethylindazol-6-ol] |
| > 10 | 0.1 to 1 | CNC(=O)c1nc(-c2cc3cn(C)nc3c(C)c2O)nc2ccc(N3CCC(N4CCC4)CC3)cc12 [Compound 706] |
| 0.1 to 1 | 0.1 to 1 | C[C@@H]1CN(c2ccc3nc(-c4cc5cn(C)nc5c(F)c4O)nc(C#N)c3c2)C[C@H](C)N1 [Compound 707, 6-[(3R,5S)-3,5-dimethylpiperazin-1-yl]-2-(7-fluoro-6-hydroxy-2-methylindazol-5-yl) quinazoline-4-carbonitrile] |
